Values of other authors, collected in paper PMC139967 (BMC Biochemistry, 2002).

Tested on: calmodulin

## KAHKAATKIQASFRGHITRKKLKC [NM]
  effect of high ionic strength on calmodulin binding: reduced by high ionic strength
